Tests used:
[1] = Acute toxicity test after single oral administration, mouse; conditions: in vivo, mouse (ICR strain, 6 weeks old), read-out: 50% lethal dose (LD50)
Protocol: (§1) These compounds have low toxicities and thus may be sufficiently used for medical products. For example, the 50% lethal dose (LD50) in the acute toxicity tests after single oral administration of 4 brome-5-(3-ethoxy-4-methoxybenzylamino)-3(2H)-pyridazinone as a typical compound thereof, was 2,000 mg/kg with respect to each of mouse (ICR strain, 6 weeks old), rat (SD strain, 6 weeks old) and dog (beagle, 6 months old).

[2] = Subjective symptoms, diagnosis by doctor, scientific and clinical examination during repeated oral administration; assay type: in vivo, human (healthy adult males); conditions: oral 40 mg three times a day for 7 days; until 29th day after the termination
Protocol: (§2) To each of six healthy adult males (23 to 32 years age, average: 28 years age), two tablets each containing 20 mg of 4-bromo-5-(3-ethoxy-4-methoxybenzylamino)-3(2H)-pyridazinone (Compound A) were orally administered (40 mg) three times a day (120 mg) in the morning, noon and evening for 7 days (on the 7th day, administered only in the morning). Examinations were conducted with respect to the following four items from the time before the administration to the time until the 29th day after the termination of administration.
Everyday during the period of examination, each testee records the subjective symptoms.
A doctor makes diagnoses by asking, or ansculating and percussioning, and records their observations.
Blood pressure, pulse rate, body temperature, breathing rate, ECG (12 derivatives), pulmonary function (FVC, FEV1.0%), and visual or acoustic observation
(§3) Erythrocyte count, leukocyte count, hemoglobin quantity, hematocrit value, blood platelet count, reticulocyte count, leukocyte fraction and prothrombin time
Total protein, albumin, A/G ratio (protein fraction), BUN, creatinine, uric acid, total cholesterol, neutral fats, Na, K, Cl, Al-P, LAP, GOT, GPT, LDH, γ-GTP, ZTT, TTT, CPK, total bilirubin, direct bilirubin and blood sugar
Specific gravity, pH, bilirubin, urobilinogen, ketone body, sugar, protein and sedimentation

blood platelet count = assay: Change of blood platelet count at the time of repeated administration of Compound A; assay type: in vivo, human (healthy adult males)
Protocol: as §2
(1) Hematological Examination
as §3

[3] = Acute toxicity test after single oral administration, rat; conditions: in vivo, rat (SD strain, 6 weeks old), read-out: 50% lethal dose (LD50)
Protocol: as §1

[4] = Acute toxicity test after single oral administration, dog; conditions: in vivo, dog (beagle, 6 months old), read-out: 50% lethal dose (LD50)
Protocol: as §1

SMILES: CCOc1cc(CNc2cn[nH]c(=O)c2Br)ccc1OC [Compound A, 4-bromo-5-(3-ethoxy-4-methoxybenzylamino)-3(2H)-pyridazinone]
- LD50 [1]: 2000 mg/kg
- Symptoms or changes in all items of examinations other than the blood platelet count [2]: no problematic symptom or change has been observed
- Blood platelet count, average value ± a standard deviation (blood platelet count; 1st day after the termination of administration, oral 40 mg three times a day for 7 days, ***p < 0.001 vs before administration (paired t-test)): 14.1 ± 2.0 ×10^4 /μl
- Blood platelet count, average value ± a standard deviation (blood platelet count; 6th day after the termination of administration, oral 40 mg three times a day for 7 days, **p < 0.01 vs before administration (paired t-test)): 20.4 ± 2.2 ×10^4 /μl
- Blood platelet count, average value ± a standard deviation (blood platelet count; 29th day after the termination of administration, oral 40 mg three times a day for 7 days): 29.2 ± 3.9 ×10^4 /μl
- Blood platelet count, average value ± a standard deviation (blood platelet count; 3 days after the initiation of administration, oral 40 mg three times a day (120 mg/day), **p < 0.01 vs before administration (paired t-test)): 25.0 ± 2.7 ×10^4 /μl
- Blood platelet count, average value ± a standard deviation (blood platelet count; before the initiation of administration (baseline), six healthy adult males): 27.6 ± 2.6 ×10^4 /μl
- LD50 [3]: 2000 mg/kg
- LD50 [4]: 2000 mg/kg

Source: US5219854A, “Blood platelet-decreasing method” (Nissan Chemical Industries Ltd., priority 1991, dated 1993)
